From US9932637B2, “Genetic polymorphisms associated with cardiovascular disorders and drug response, methods of detection and uses thereof” (CELERA CORPORATION, priority 2003, dated 2018)
Several values for one entry are separate records, joined by “and”; a condition that tells them apart may be missing. Identical values can stand only once.

System: Scottish men with hypercholesterolemia (WOSCOPS)
Assay: WOSCOPS nested case-control: coronary events under pravastatin vs placebo by genotype (Tables 11, 13, 15)
Type: in vivo, human
Conditions: for Pravastatin Patients (%) / Pravastatin Patients n/total: WM
From the text: Additionally, genetic markers identified as associated with acute coronary events or response to statin treatment for the prevention of coronary events in the CARE samples were also genotyped in a second sample set, the West of Scotland Coronary Prevention Study (WOSCOPS) sample set. […] Participants in the WOSCOPS study were 45-64 years of age and followed for an average of 4.9 years for coronary events. […] Controls were 1160 age and smoking status-matched unaffected patients. All individuals included in the study had signed a written informed consent form and the study protocol was approved by IRB s. DNA was extracted and genotyped as described above.
The data presented in Table 8 based on an association of genotypes with pravastatin efficacy of the CARE samples were further analyzed and presented in Table 13. The further analysis was performed to align the data obtained from the analysis of the CARE samples, which was a prospective study, to the analysis of the WOSCOP samples, which was a case/control study. Table 13 also presents an analysis of the association of genotypes with pravastatin efficacy in the WOSCOPs samples. Relative to the analysis performed on the data presented in Table 8, there are two significant differences to determine if the SNP influenced pravastatin efficacy. Data obtained from the CARE samples were separated by study design into two groups, those in the prospective study design group and those in the case/control study design group. The original care study contained 16 protocol defined cardiovascular disease defined endpoints and 150 other phenotypes. […] The control groups used to compare the data were also divided into two groups, the “all possible” control group and the “cleaner” control group. […] Because the participants in the WOSCOPs trial were all white males, only data obtained from white males in the CARE study were analysed. […] The data from the case/control cohorts were analysed using conditional logistic regression (as opposed to logistic regression used for the original anaylsis).
The anaylsis was refined as described for both Tables 13 and 14.

[1] = CAPN2 hCV781558, WOSCOPS (W) Case/Control, F&NF MI, listed as Pravastatin
[2] = CAPN2 hCV781558, WOSCOPS, Case/Control, F MI/SD/NF MI, listed as Pravastatin
[3] = CCL11 hCV7449808, WOSCOPS (W) Case/Control, F&NF MI
[4] = CCL11 hCV7449808, WOSCOPS, Case/Control, F MI/SD/NF MI
[5] = COL6A2 hCV2811372, WOSCOPS, Case/Control, F MI/SD/NF MI
[6] = COL6A2 hCV2811372, WOSCOPS, Case/Control, F MI/SD/NF MI, listed as Pravastatin
[7] = DDEF1 hCV7686234, WOSCOPS (W) Case/Control, F&NF MI
[8] = FGB hCV7429784, WOSCOPS, Case/Control, F MI/SD/NF MI
[9] = GAPD hCV8921288, WOSCOPS (W) Case/Control, F&NF MI
[10] = GAPD hCV8921288, WOSCOPS, Case/Control, F MI/SD/NF MI
[11] = HRC hCV11506744, 0 Rare Alleles, WOSCOPS Case/Control, F&NF MI, All Possible controls
[12] = HRC hCV11506744, 0 Rare Alleles, WOSCOPS Case/Control, F&NF MI, Cleaner controls
[13] = HRC hCV11506744, 1 Rare Allele, WOSCOPS Case/Control, F&NF MI, All Possible controls
[14] = HRC hCV11506744, 1 Rare Allele, WOSCOPS Case/Control, F&NF MI, Cleaner controls
[15] = HRC hCV11506744, WOSCOPS Case/Control, F&NF MI
[16] = HRC hCV11506744, WOSCOPS, Case/Control, F MI/SD/NF MI, listed as Pravastatin
[17] = IL1A hCV9546471, 0 Rare Alleles, WOSCOPS Case/Control, F&NF MI, All Possible controls
[18] = IL1A hCV9546471, 1 Rare Allele, WOSCOPS Case/Control, F&NF MI, All Possible controls
[19] = IL1A hCV9546471, WOSCOPS Case/Control, F&NF MI
[20] = IL1A hCV9546471, WOSCOPS, Case/Control, F MI/SD/NF MI
[21] = LRP3 hCV25594815, 0 Rare Alleles, WOSCOPS Case/Control, F&NF MI, All Possible controls
[22] = LRP3 hCV25594815, 0 Rare Alleles, WOSCOPS Case/Control, F&NF MI, Cleaner controls
[23] = LRP3 hCV25594815, 1 Rare Allele, WOSCOPS Case/Control, F&NF MI, All Possible controls
[24] = LRP3 hCV25594815, 1 Rare Allele, WOSCOPS Case/Control, F&NF MI, Cleaner controls
[25] = LRP3 hCV25594815, WOSCOPS Case/Control, F&NF MI
[26] = LRP3 hCV25594815, WOSCOPS, Case/Control, F MI/SD/NF MI
[27] = PON1 hCV2548962, 0 rare alleles, WOSCOPS Case/Control, Fatal & Nonfatal MI, Cleaner controls, White Males
[28] = PON1 hCV2548962, 1 rare allele, WOSCOPS Case/Control, Fatal & Nonfatal MI, Cleaner controls, White Males
[29] = PON1 hCV2548962, 2 rare alleles, WOSCOPS Case/Control, Fatal & Nonfatal MI, Cleaner controls, White Males
[30] = WOSCOPS, FCAR genotype GG, placebo group as reference, conditional logistic regression

CC[C@H](C)C(=O)O[C@H]1C[C@H](O)C=C2C=C[C@H](C)[C@H](CC[C@@H](O)C[C@@H](O)CC(=O)O)[C@H]21 [pravastatin]
Pravastatin vs placebo odds ratio, 1 rare allele (CAPN2 hCV781558, WOSCOPS (W) Case/Control, F&NF MI): 1.02 | 2 Rare Alleles n/total, Pravastatin Patients [1]: 10/41 and 10/39 | Pravastatin vs placebo odds ratio, 0 rare alleles [1]: 0.52 and 0.51 | Pravastatin vs placebo odds ratio, 1 rare allele [1]: 1.07 | Pravastatin vs placebo odds ratio, 2 rare alleles [1]: 0.46 and 0.38 | Pravastatin vs placebo odds ratio, 1 rare allele (CAPN2 hCV781558, WOSCOPS, Case/Control, F MI/SD/NF MI): 1.08 | Pravastatin vs placebo odds ratio, 0 rare alleles [2]: 0.46 and 0.45 | Pravastatin vs placebo odds ratio, 1 rare allele [2]: 1.03 | Pravastatin vs placebo odds ratio, 2 rare alleles [2]: 0.56 and 0.43 | 2 Rare Alleles n/total, Pravastatin Patients [3]: 10/24 and 10/22 | Pravastatin vs placebo odds ratio, 0 rare alleles [3]: 0.67 and 0.65 | Pravastatin vs placebo odds ratio, 1 rare allele [3]: 0.57 and 0.53 | Pravastatin vs placebo odds ratio, 2 rare alleles [3]: 6.96 and 7.20 | Pravastatin vs placebo odds ratio, 0 rare alleles [4]: 0.63 and 0.62 | Pravastatin vs placebo odds ratio, 1 rare allele [4]: 0.50 and 0.46 | Pravastatin vs placebo odds ratio, 2 rare alleles [4]: 8.57 and 9.95 | Pravastatin vs placebo odds ratio, 0 rare alleles [5]: 0.39 | Pravastatin vs placebo odds ratio, 2 rare alleles [5]: 1.04 | Pravastatin vs placebo odds ratio, 1 rare allele [6]: 0.62 and 0.59 | Pravastatin vs placebo odds ratio, 2 rare alleles [6]: 1.09 | 2 Rare Alleles (%), Pravastatin Patients [7]: (25.1%) | 2 Rare Alleles n/total, Pravastatin Patients [7]: 42/167 | Pravastatin vs placebo odds ratio, 0 rare alleles [7]: 0.45 | Pravastatin vs placebo odds ratio, 1 rare allele [7]: 0.68 | Pravastatin vs placebo odds ratio, 2 rare alleles [7]: 1.06 | 2 rare alleles n/total (%), pravastatin patients [8]: (50.0%) | Pravastatin vs placebo odds ratio, 0 rare alleles [8]: 0.63 | Pravastatin vs placebo odds ratio, 1 rare allele [8]: 0.52 | Pravastatin vs placebo odds ratio, 2 rare alleles [8]: 3.14 | 2 Rare Alleles n/total, Pravastatin Patients [9]: 10/26 and 10/23 | Pravastatin vs placebo odds ratio, 0 rare alleles [9]: 0.54 and 0.50 | Pravastatin vs placebo odds ratio, 1 rare allele [9]: 0.99 and 0.98 | Pravastatin vs placebo odds ratio, 2 rare alleles [9]: 1.51 and 1.90 | Pravastatin vs placebo odds ratio, 0 rare alleles [10]: 0.50 and 0.46 | Pravastatin vs placebo odds ratio, 1 rare allele [10]: 0.88 and 0.89 | Pravastatin vs placebo odds ratio, 2 rare alleles [10]: 1.56 and 1.92 | Pravastatin Patients (%) [11]: (23.3%) | Pravastatin Patients n/total [11]: 59/253 | Pravastatin Patients (%) [12]: (25.2%) | Pravastatin Patients n/total [12]: 59/234 | Pravastatin Patients (%) [13]: (18.0%) | Pravastatin Patients n/total [13]: 65/361 | Pravastatin Patients (%) [14]: (19.2%) | Pravastatin Patients n/total [14]: 65/338 | 2 Rare Alleles (%), Pravastatin Patients [15]: (27.6%) | 2 Rare Alleles n/total, Pravastatin Patients [15]: 35/127 and 35/118 | Pravastatin vs placebo odds ratio, 0 rare alleles [15]: 0.84 and 0.80 | Pravastatin vs placebo odds ratio, 1 rare allele [15]: 0.49 and 0.46 | Pravastatin vs placebo odds ratio, 2 rare alleles [15]: 1.08 | Pravastatin vs placebo odds ratio, 2 rare alleles (HRC hCV11506744, WOSCOPS, Case/Control, F MI/SD/NF MI): 1.04 | Pravastatin vs placebo odds ratio, 0 rare alleles [16]: 0.85 and 0.80 | Pravastatin vs placebo odds ratio, 1 rare allele [16]: 0.41 and 0.39 | Pravastatin vs placebo odds ratio, 2 rare alleles [16]: 1.05 | Pravastatin Patients (%) [17]: (20.8%) | Pravastatin Patients n/total [17]: 77/370 | Pravastatin Patients (%) [18]: (24.2%) | Pravastatin Patients n/total [18]: 74/306 | 2 Rare Alleles (%), Pravastatin Patients [19]: (18.3%) | 2 Rare Alleles n/total, Pravastatin Patients [19]: 11/60 | Pravastatin vs placebo odds ratio, 0 rare alleles [19]: 0.52 | Pravastatin vs placebo odds ratio, 1 rare allele [19]: 0.95 | Pravastatin vs placebo odds ratio, 2 rare alleles [19]: 0.95 | Pravastatin vs placebo odds ratio, 0 rare alleles [20]: 0.46 and 0.45 | Pravastatin vs placebo odds ratio, 1 rare allele [20]: 0.91 and 0.85 | Pravastatin vs placebo odds ratio, 2 rare alleles [20]: 0.94 and 0.98 | Pravastatin Patients (%) [21]: (24.1%) | Pravastatin Patients n/total [21]: 133/552 | Pravastatin Patients (%) [22]: (26.1%) | Pravastatin Patients n/total [22]: 133/509 | Pravastatin Patients (%) [23]: (14.5%) | Pravastatin Patients n/total [23]: 25/172 | Pravastatin Patients (%) [24]: (15.2%) | Pravastatin Patients n/total [24]: 25/164 | 2 Rare Alleles (%), Pravastatin Patients [25]: (27.3%) | 2 Rare Alleles n/total, Pravastatin Patients [25]: 3/11 | Pravastatin vs placebo odds ratio, 0 rare alleles [25]: 0.82 and 0.80 | Pravastatin vs placebo odds ratio, 1 rare allele [25]: 0.33 and 0.31 | Pravastatin vs placebo odds ratio, 2 rare alleles [25]: 1.46 and 1.21 | 2 rare alleles n/total (%), pravastatin patients [26]: (27.3%) | Pravastatin vs placebo odds ratio, 0 rare alleles [26]: 0.76 and 0.75 | Pravastatin vs placebo odds ratio, 1 rare allele [26]: 0.29 and 0.26 | Pravastatin vs placebo odds ratio, 2 rare alleles [26]: 2.40 and 1.80 | Pravastatin vs. Placebo Odds Ratio (95% CI), Patients with 0 Rare Alleles [27]: 0.84 (0.60 to 1.16) | n/total (%) cases, Pravastatin Patients, 0 Rare Alleles [27]: 88/344 (25.6%) | Pravastatin vs. Placebo Odds Ratio (95% CI), Patients with 1 Rare Allele [28]: 0.58 (0.40 to 0.84) | n/total (%) cases, Pravastatin Patients, 1 Rare Allele [28]: 65/282 (23.1%) | Pravastatin vs. Placebo Odds Ratio (95% CI), Patients with 2 Rare Alleles [29]: 0.34 (0.14 to 0.82) | n/total (%) cases, Pravastatin Patients, 2 Rare Alleles [29]: 9/53 (17.0%) | RR or OR of adverse coronary event, pravastatin vs placebo (WOSCOPS, CD6 hCV2553030, homozygous for the minor allele): 0.23 | OR (odds ratio) of MI associated with Pravastatin (WOSCOPS, CD6 hCV2553030 genotype Het (TC)): 0.71 | OR (odds ratio) of MI associated with Pravastatin (WOSCOPS, CD6 hCV2553030 genotype Major hom (CC)): 0.66 | OR (odds ratio) of MI associated with Pravastatin (WOSCOPS, CD6 hCV2553030 genotype Minor hom (TT)): 0.23 | OR (odds ratio) of MI associated with Pravastatin (WOSCOPS, CD6 hCV2553030 recessive (TT)): 0.23 | OR (odds ratio) of MI associated with Pravastatin (WOSCOPS; CD6 hCV2553030 recessive TC + CC)ref): 0.68 | OR of MI associated with Pravastatin, first of two OR sets printed [30]: 0.66 | OR of MI associated with Pravastatin, second of two OR sets printed [30]: 0.65
